According to patent US9102719B2, “SOGA polynucleotides and polypeptides and uses thereof” (University of North Carolina at Chapel Hill, priority 2009, dated 2015):

What was measured:
[1] = test system: NOD mice; test: Insulin injection in diabetic NOD mice; format: in vivo, mouse; details: single injection of insulin 24 hours earlier
Procedure: Mice were housed in ventilated isolator cage systems in a pathogen-free barrier facility maintained at 23° C., 55% humidity on a 12-h light/12-h dark cycle. Mice received a standard chow diet consisting of 73% carbohydrate, 18% protein, 4% fat and 5% ash (Purina). Young (3-6 month old) female C57B1/6J calorie restricted (CR) and ad libitum fed (AL) mice were maintained as previously described (Combs et al., Diabetes 52:268 (2003)). Adjustments were made to ensure that CR mice received 70% of the ad libitum food intake. Blood samples were collected at 1300 from the tail tip using heparinized capillary tubes (Fisher) and stored at −20° C. Male ob/ob mice (FVB background strain) received a daily dose of pioglitazone at 0.6 mg/kg BW in 0.025% (w/w) carboxymethylcellulose by oral gavage for 4 days. Control mice received carboxymethylcellulose by oral gavage for 4 days. Blood was collected from the tail tip on day 5 and analyzed for glucose, adiponectin and 25 kDa SOGA. Immediately after the collection of blood samples, ob/ob mice were sacrificed by cervical dislocation for tissue collection. Northern blot analysis for SOGA mRNA and 18S RNA was performed using 20 μg of liver RNA. NOD mice were bred and housed as previously described (Wong et al., J. Immunol. 176:1637 (2006)). […] Glucose was measured by colorimetric assay. Adiponectin and SOGA were measured by SDS-PAGE analysis using 1 μl of plasma. […]

[2] = test system: ob/ob mice; test: Pioglitazone treatment of diabetic ob/ob mice; format: in vivo, mouse; details: after 4 days of treatment
Procedure: Mice were housed in ventilated isolator cage systems in a pathogen-free barrier facility maintained at 23° C., 55% humidity on a 12-h light/12-h dark cycle. Mice received a standard chow diet consisting of 73% carbohydrate, 18% protein, 4% fat and 5% ash (Purina). Young (3-6 month old) female C57B1/6J calorie restricted (CR) and ad libitum fed (AL) mice were maintained as previously described (Combs et al., Diabetes 52:268 (2003)). Adjustments were made to ensure that CR mice received 70% of the ad libitum food intake. Blood samples were collected at 1300 from the tail tip using heparinized capillary tubes (Fisher) and stored at −20° C. Male ob/ob mice (FVB background strain) received a daily dose of pioglitazone at 0.6 mg/kg BW in 0.025% (w/w) carboxymethylcellulose by oral gavage for 4 days. Control mice received carboxymethylcellulose by oral gavage for 4 days. Blood was collected from the tail tip on day 5 and analyzed for glucose, adiponectin and 25 kDa SOGA. Immediately after the collection of blood samples, ob/ob mice were sacrificed by cervical dislocation for tissue collection. Northern blot analysis for SOGA mRNA and 18S RNA was performed using 20 μg of liver RNA. NOD mice were bred and housed as previously described (Wong et al., J. Immunol. 176:1637 (2006)). Where indicated, diabetic NOD mice were injected with 5 units of insulin (NPH Human Insulin, Isophane Suspension; 100 U/ml Novolin; Novo Nordisk) 24 hours prior to blood collection. Adiponectin transgenic mice were produced as previously described (Combs et al., Endocrinology 145:367 (2004)). Glucose was measured by colorimetric assay. Adiponectin and SOGA were measured by SDS-PAGE analysis using 1 μl of plasma. […] Experimental procedures were approved by IACUC.

[3] = test system: SOGA; format: cell-based, mouse
Procedure: (§1) Mouse livers were perfused with a Krebs-Ringer-HEPES buffer containing collagenase (Sigma-Aldrich). Livers were isolated and cells were dispersed by gentle shaking and filtered through sterile nylon gauze. Cells were washed twice with sterile phosphate-buffered saline and purified by centrifugation in 50% isotonic Percoll (Sigma-Aldrich). Cells were resuspended with Krebs-Ringer-HEPES+Ca^2+ buffer to a total volume of 10 ml. Viability was validated via trypan blue exclusion and routinely exceeded 90%. Freshly isolated mouse hepatocytes were plated at 10^5 cells per well in 12-well culture plates coated with rat tail collagen I (BD Biosciences). […] SOGA siRNA, AICAR (500 μM) or […] (10 nM) were introduced to the media 48 hours before the measurement of glucose production. siRNA sequences corresponding to base pairs 333-351 and 1988-2007 on the open reading frame of murine SOGA were selected using a rational design algorithm (Invitrogen). […] Glucose was measured by colorimetric assay (Autokit Glucose CII) (Brooks et al., J. Biol. Chem. 282:35069 (2007)). Valine in the medium was measured by a UPLC (Waters) coupled TSQ-Quantum ultra triple quad mass analyzer (ThermoFinigan) in the Biomarkers Facility Core at UNC. Valine was measured in selected reaction monitoring mode (SRM) using the MS/MS transition of 118→72.

[4] = test system: primary murine hepatocytes; test: Hepatocyte glucose production (colorimetric assay); format: cell-based, mouse; details: adiponectin exposure (adipocyte conditioned media)
Procedure: as §1

insulin: NPH Human Insulin, Isophane Suspension (Novolin; Novo Nordisk)
induction of SOGA (circulating 25 kDa SOGA) [1]: 2 fold

CCc1ccc(CCOc2ccc(CC3SC(=O)NC3=O)cc2)nc1 (centres unmarked) [Pioglitazone, pioglitazone]
concentration of plasma glucose ([2]; untreated ob/ob mice 450±18 mg/dl, p<0.05): 155 ± 8 mg/dL
elevation of circulating adiponectin ([2]; daily oral gavage): 3 fold
increase of SOGA mRNA in the liver ([2]; daily oral gavage, SOGA mRNA/18S RNA): 40%
elevation of circulating SOGA ([2]; daily oral gavage, plasma 25 kDa SOGA): 3 fold

NC(=O)c1ncn([C@@H]2O[C@H](CO)[C@@H](O)[C@H]2O)c1N [AICAR, N1-(β-D-ribofuranosyl)-5-aminoimidazole-4-carboxamide]
effect on SOGA level (intracellular and extracellular) ([3]; 500 μM AICAR, with or without adiponectin, n=4 per group): decrease in SOGA that was blocked by adiponectin exposure

B1: Adiponectin: hormone provided from adipocyte conditioned media with or without adiponectin (protein, UniProt Q15848 19-244, looked up)
Adiponectin: ETTTQGPGVLLPLPKGACTGWMAGIPGHPGHNGAPGRDGRDGTPGEKGEKGDPGLIGPKGDIGETGVPGAEGPRGFPGIQGRKGEPGEGAYVYRSAFSVGLETYVTIPNMPIRFTKIFYNQQNHYDGSTGKFHCNIPGLYYFAYHITVYMKDVKVSLFKKDKAMLFTYDQYQENNVDQASGSVLLHLEVGDQVWLQVYGEGERNGLYADNDNDSTFTGFLLYHDTN
modifications: in adipocyte conditioned media
reduction in glucose production [4]: 50%
increase of SOGA in primary hepatocytes [3]: 40%
